Results as given in patent US12516085B2, “Methods and compositions for treating Myc-driven cancers” (Sanford Burnham Prebys Medical Discovery Institute, priority 2019, dated 2026).
Entries after “also recorded” stand apart in the source; their conditions may differ.

Columns and labels:
Assay type in all cases: cell-based
[1] = system: MSTO-211H-HNB^i; experiment: Proliferation after Doxycycline-induced HNB expression, MSTO-211H-HNB^i; conditions: following Doxycycline treatment
Description: (§1) In addition, an inducible lentiviral system was developed, in which the transgene could be expressed under a Doxycycline inducible promoter. The system was verified by inserting eGFP as the transgene and by flow analysis of GFP^+ cells in absence and presence of doxycycline as shown in FIG. 8. […] The same system was used to clone HNB under the regulation of a Doxycycline inducible promoter and generate the cell lines MSTO-211H-HNB^i and U2OS-HNB^i. […] Western blot analysis was performed of Myc protein in Hi-Myc cell line MSTO-211H-HNB^i.

[2] = system: Hi- and Lo-Myc cell lines; experiment: Proliferation of Hi- and Lo-Myc cell lines transfected with lentiviral vectors expressing GFP, HNB or HNB(ATG>TGA); conditions: 8 Hi- and Lo-Myc cell lines; lentiviral overexpression
Text: To determine the function of the HNB, the Hi- and Lo-Myc cell lines were transfected with lentiviral vectors expressing GFP, HNB or HNB where the start site has been mutated (HNB(ATG>TGA)).

[3] = system: Myc protein; experiment: Western blot of Myc protein after Doxycycline-induced HNB expression in MSTO-211H-HNB^i; conditions: Hi-Myc cell line MSTO-211H-HNB^i; following Doxycycline induction
Description: as §1

[4] = system: U2OS-HNB^i; experiment: Proliferation after Doxycycline-induced HNB expression, U2OS-HNB^i; conditions: following Doxycycline treatment
Description: as §1

HNB: 14 amino acid micro-peptide MKTQLGAVKGFLHV (SEQ ID NO: 1) coded by shORF at Exon 3-4 junction of PVT1ts; expressed from lentiviral vectors
proliferation rate [1]: significant reduction in their proliferation rates
proliferation [2]: failed to proliferate
Myc protein expression (western blot, relative to β-Actin) [3]: decreased; also recorded: reduced MYC protein
proliferation rate [4]: significant reduction in their proliferation rates
